According to patent US20260218210A1, “ENGINEERED BACTERIA FOR CELLULAR BARRIER M[…] PROTECTION” (The Trustees of Columbia University in the City of New York, priority 2023, published 2026):

Key:
[1] = test system: acute DSS colitis in NFD/FDD fed mice; assay: Acute DSS colitis in mice fed fiber-deficient (no fiber) diet; type: in vivo, mouse
Procedure: (§1) Mice and diets C57BL/6J and Il10^−/− mice were purchased from Jackson Laboratory. Animals were purchased from maximum barrier rooms and maintained in high barrier animal rooms at Columbia University. All mice were maintained under specific-pathogen-free (SPF) conditions for the duration of the experiments. All experiments were performed under IACUC approved guidelines. To control for microbiota and cage effects, mice were shuffled between cages before the start of each experiment and randomly assigned to each group. All experiments were performed with gender and age (8-12 weeks at start of experiment) matched mice. Animals were maintained on normal diet (PicoLab Rodent Diet 20, 5053) until start of experiments and then switched to fiber-deficient diet (Teklad Custom Diet, TD.00278) or continued on ND as indicated. ND contained 21% protein, 53.4% carbohydrates, 5% fat, 5% fiber and 4 kcal/g. FDD contained 19.3% protein, 64.8% carbohydrates, 5.1% fat and no fiber, overall the diet provides 3.9 kcal/g.
(§2) DSS colitis and GLP-1 modulating therapies For induction of acute DSS colitis, between 0.5% to 6% w/v dextran sulfate sodium (DSS, colitis grade, MPbio) was supplemented in drinking water for five days. Drinking water was furthermore enriched with 2% w/v sucrose for all groups. Mice were switched to FDD seven days prior to DSS supplementation or maintained on ND during course of experiment. As indicated, FDD mice were i.p. injected with 0.1 μg/g GLP-1 receptor agonist (Exendin-4, AS-24463, AnaSpec) or 0.4 μg/g GLP-1 receptor antagonist (Exendin-9-39, AS-24467, AnaSpec) in 100 μl PBS every day starting one day before start of DSS. Additionally, mice were orally gavaged with either 10^10 CFU E. coli Nissle (EcN) or 10^10 CFU E. coli Nissle-HldSE (EcN-HldSE) every day starting one day prior to DSS supplementation. Of note, tissue samples for RNA-sequencing analysis are derived from mice either gavaged with EcN (control and GLP-1 receptor agonist groups) or EcN-HldSE (EcN-HldSE and GLP-1 receptor antagonist groups). Mice were monitored daily for changes in body weight. After five days, mice were euthanized for blood and tissue sampling.
Histological analyses The colonic tissue was carefully rinsed with PBS to remove fecal matter. Colon and small intestine was fixated in 10% formalin for >24 hours and embedded in paraffin. 5 μm section were stained with H&E, Alcian Blue and Immunohistochemistry (IHC) staining for GLP-1 (GLP-1 polyclonal antibody, PA5-79303, Invitrogen). A pathologist assessed and scored H&E stained slides for colitis grading.
Plating for liver colony forming units (CFU) For bacterial extraction from liver tissue, livers were first weighed and then transferred into sterile stainless steel microvials (Biospec #2007) containing two stainless steel beads (6.35 mm, Biospec #11079635SS) and capped with silicone rubber caps (Biospec #2008). The vials were subsequently filled with 500 μL of sterile phosphate-buffered saline (PBS), and the tubes were placed on ice to prevent bacterial growth. The samples were homogenized using a Mini-BeadBeater-16 (BioSpec) with three cycles of 30 seconds at 4° C. After extraction, the samples were diluted as needed in PBS, and 100 μL of the diluted solution was plated onto Luria-Bertani (LB) agar plates (2% agar). The plates were thoroughly dried and incubated at 37° C. overnight. Colony-forming units (CFU) were counted the following day and normalized to tissue weight.
Plasma analyses GLP-1 and pro-inflammatory cytokine measurements were performed from plasma samples. After euthanasians, blood was drawn from mice with needles coated with EDTA to stop coagulation. Blood samples were pelleted by centrifugation for 10 min at 15000 rpm at 4° C. Supernatant was transferred to a new tube, snap frozen and stored at −80° C. GLP-1 ELISA (GLP-1 Multispecies ELISA kit, BMS2194, Invitrogen) and LEGENDplex Mouse Inflammation Panel (740446, BioLegend) were performed according to manufacturer protocol. […]

[2] = test system: colon tissue gene expression; assay: RNA-sequencing of colon tissue of FDD mice during DSS colitis; type: in vivo, mouse
Procedure: as §2
RNA colonic transcriptomics For mRNA sequencing using the Illumina platform, total RNA was first extracted from tissue using TRItol reagent. The extracted RNA was quantified using Bioanalyzer to ensure high-quality RNA (RIN>7) for further library preparation. Poly-A mRNA was isolated using the Dynabeads™ mRNA Purification Kit (Thermo Fisher, #61006), followed by fragmentation with the NEBNext Ultra II RNA Library Prep Kit (New England Biolabs, #E7770) at 94° C. for 8 minutes. First-strand cDNA synthesis was performed using SuperScript IV Reverse Transcriptase (Thermo Fisher, #18090050), followed by second-strand cDNA synthesis. […] Libraries were validated for quality and size distribution using 2% agarose gel and enriched using size selection beads to eliminate any cDNA below 350 bp, and quantified using a Qubit 4 Fluorometer (Thermo Fisher, #Q33226). Sequencing was performed on an Illumina NextSeq550 platform using paired-end 150 bp reads high output.
Post-sequencing, FastQC (v0.11.9) was employed to assess raw read quality, evaluating metrics such as per-base sequence quality (Q30 or higher), GC content, and potential adapter contamination. […] Reads alignment and transcripts quantification of gene expression were done using Kallisto (v0.46.1) and DESeq2 (v1.30.1) was then used for differential expression analysis, incorporating normalization and variance-stabilizing transformation to account for differences in sequencing depth and library size. […]

[3] = test system: acute DSS colitis in NFD/FDD fed mice; assay: Acute DSS colitis in mice fed fiber-deficient (no fiber) diet; type: in vivo, mouse; conditions: five days DSS colitis
[4] = test system: IEL γδ (gd) T cells; assay: IEL γδ T cell IL-17A production and γδ T cell depletion in DSS colitis of NFD fed mice; type: in vivo, mouse
Description: EcN or EcN HldSE (5×10^9 CFU/mouse) was gavaged daily starting three days prior to DSS administration. gd T cells were depleted by administration of neutralizing antibodies i.p. every other day. […] EcN or EcN HldSE (5×10^9 CFU/mouse) was gavaged daily starting three days prior to DSS administration. gd T cells were depleted by administration of neutralizing antibodies i.p. every other day. N=3-5 mice/group, one experiment. […] EcN or EcN HldSE (5×10^9 CFU/mouse) was gavaged daily starting three days prior to DSS administration. gd T cells were depleted by administration of neutralizing antibodies i.p. every other day. N=3-5 mice/group, one experiment.

[5] = test system: GLP-1 release; conditions: cited from earlier work
[6] = test system: acute DSS colitis in NC/ND fed mice; assay: Acute DSS colitis in mice fed normal chow / normal diet; type: in vivo, mouse; conditions: five days DSS colitis
Procedure: as §1, §2
Plating for liver colony forming units (CFU) For bacterial extraction from liver tissue, livers were first weighed and then transferred into sterile stainless steel microvials (Biospec #2007) containing two stainless steel beads (6.35 mm, Biospec #11079635SS) and capped with silicone rubber caps (Biospec #2008). […] Colony-forming units (CFU) were counted the following day and normalized to tissue weight.
Here, mice with low fiber diets were treated with DSS for […] with or without the engineered Nissle HldSE (FIG. 3A) Treatment with Nissle HldSE improved barrier function measured based on infiltrating gut bacteria in liver (Liver CFU; FIG. 3C). […]

[7] = FDD mice, five days DSS colitis, agonist 0.1 μg/g i.p. daily or 10^10 CFU gavage daily
[8] = FDD mice, DSS colitis, EcN-HldSE treatment plus antagonist injection

Exendin-4 [GLP-1 receptor agonist]
L-cell numbers (GLP-1 staining) in colon ([1]; FDD mice during DSS colitis): increase | goblet cell numbers (Alcian Blue staining) in colon ([1]; FDD mice during DSS colitis): remained unchanged | histological colitis score ([1]; FDD mice, DSS colitis): improved | colitis outcome in dysbiotic mice ([1]; FDD mice, DSS colitis, figure headlines FIGS. 10, 11): ameliorate | circulating (pro-)inflammatory cytokines (TNF-α, IL-1α, IL-6, MCP-1) ([1]; FDD mice, five days DSS colitis, plasma): lower | colon shortening [1, 7]: less | weight loss [1, 7]: reduced | genes linked to ribosome biogenesis, cell cycle and DNA replication and inflammatory signaling ([2]; colon of FDD mice during colitis): downregulated | DEGs commonly upregulated in the colon with EcN-HldSE and the GLP-1 receptor agonist ([2]; colon of FDD mice, DSS colitis, versus EcN control): ~50% | genes associated with homeostasis and recovery phases (GSEA) ([2]; colon of FDD mice, acute colitis, DSS colitis time-series dataset): enrichment | genes involved in lipid metabolism, tight junctions and epithelial structure maintenance ([2]; over-representation analysis, colon of FDD mice during DSS colitis): upregulation | CFU levels in the liver (bacteria dissemination into the liver) [3]: significantly reduced

MAADIISTIGDLVKWIIDTVNKFKK [HldSE]
IL-17A production by γδ T cells ([4]; IEL γδ T cells after 6 days of DSS treatment of NFD fed mice): upregulation | efficacy of the peptide after depletion of γδ T cells ([4]; experimental depletion of γδ T cells, NFD fed mice, DSS): notable, albeit not exhaustive, diminishment | GLP-1 release in vitro [5]: induce

Exendin-9-39 [GLP-1 receptor antagonist]
protective effects of the engineered probiotic ([1]; FDD mice, DSS colitis, EcN-HldSE treatment plus antagonist 0.4 μg/g i.p. daily): abolished | colon length [1, 8]: shorter | level of circulating pro-inflammatory cytokines [1, 8]: elevated | number of bacteria in the liver [1, 8]: drastically increased | weight loss [1, 8]: severe | bacterial dissemination into the liver [6]: higher | colon shortening [6]: greater | disease severity [6]: exacerbated | weight loss [6]: more
